The structures appear in SMILES notation. Values after ≈ are worked out from the molar mass of the structure shown.

Drawing on patent publication US4965280A, “Antifungal carbinols” (E. I. Du Pont de Nemours and Company, priority 1989, dated 1990), this text covers pest or weed control and MIC for nine molecules.

For one test, the system named is Venturia inaequalis. Nature of the test: Example A apple scab. Type of test: in vivo. Conditions: 100 PPM, read-out: disease control rating, Ex. A. Put shortly: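 Spray application to run-off on apple seedlings; compound at 100 or 20 ppm in water with 250 ppm TREM 014 (polyhydric alcohol esters) and 6% acetone of final volume.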
In test [1] the test system is Cercosporidium personatum. Nature of the test: Example B Peanut Late Leafspot. It counts as in vivo. Conditions: Nothopassalora personata; 100 PPM; read-out: disease control rating, Ex. B. Put shortly:
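Spray suspensions at 100 or 20 ppm, prepared from acetone solutions (acetone 6% of final volume) in water carrying 250 ppm of a polyhydric alcohol ester surfactant, were applied to peanut seedlings until run-off.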

In the next test the test system is Botrytis cinerea. Nature of the test: Example C bean grey mold. Type of test: in vivo. Conditions: Botrytis cinerea, 24 h, 100 PPM; read-out: disease control rating, Ex. C. In short, it runs like this:
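Spray rates: 100 and 20 ppm. Vehicle: purified water with 6% acetone by final volume plus 250 ppm TREM 014 (polyhydric alcohol esters). Host plants, broad bean seedlings, were wetted until run-off.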

The subject of test [2] is Erysiphe graminis f. sp. tritici. Nature of the test: Example D wheat powdery mildew. It counts as in vivo. Conditions: Blumeria graminis, 144 h; 100 PPM; read-out: disease control rating, Ex. D. In short, it runs like this: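 Seedling wheat was treated by spraying to run-off; formulation used acetone as co-solvent (6% final) and TREM 014 surfactant at 250 ppm, with compound at 100 or 20 ppm.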

The test system of a further test is Pyricularia oryzae. Nature of the test: whole plant or invertebrate. It counts as in vivo. As to conditions: Pyricularia oryzae, 120 h, read-out: disease control rating, Ex. E, 100 PPM.
For the next test, the system named is Puccinia recondita. Nature of the test: Example G wheat leaf rust. Conditions: 100 PPM, read-out: disease control rating, Ex. G. It counts as in vivo.
A further test relates to Phytophthora infestans. Nature of the test: whole plant or invertebrate. It counts as in vivo. Conditions: Phytophthora infestans, in Solanum lycopersicum, read-out: disease control rating, Ex. H, 100 PPM.
Another test relates to Plasmorpara viticola. Nature of the test: Example I grape downy mildew. It counts as in vivo. Conditions: read-out: disease control rating, Ex. I. Put shortly: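 Grape seedlings sprayed to run-off; test suspension 100 or 20 ppm compound, acetone 6% v/v final, 250 ppm TREM 014 in purified water.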
The next test relates to Pythium aphanadermatum. Nature of the test: Example J cucumber damping off. It counts as in vivo. As to conditions: Pythium, 336 h; 5 kg/ha; read-out: disease control rating, Ex. J. Put shortly: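 This cucumber damping-off test used soil and seeds infested with a sand–cereal preparation carrying mycelium of Pythium aphanadermatum. Incubation took place in a growth chamber held at 30° C. for 14 days. Afterwards, the extent of disease was scored as a disease control rating.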

In test [3] the test system is Rhizoctonia solani. Nature of the test: Example K cotton blight. As to conditions: 336 h, 5 kg/ha, read-out: disease control rating, Ex. K. It counts as in vivo. The protocol:
[…] Seeds and soil were then inoculated with a mixture of sand, cereal and mycelium of the fungus Rhizoctonia solani, causal agent of cotton blight, and incubated in a growth chamber at 30° C. for 14 days. Disease ratings were then made.

Test [4] deals with Fusarium oxysporum f. sp. cucumerinum. Nature of the test: Example L cucumber wilt. Type of test: in vivo. As to conditions: 336 h, 5 kg/ha, read-out: disease control rating, Ex. L. The protocol:
[…] Seeds and soil were then inoculated with a mixture of sand, cereal and mycelium of the fungus Fusarium oxysporum f. sp. cucumerinum, causal agent of cucumber wilt, and incubated in a growth chamber at 30° C. for 14 days. Disease ratings were then made.

The test system of a further test is Sclerotium rolfsii. Nature of the test: Example M southern blight. It counts as in vivo. Conditions: Agroathelia rolfsii, 336 h; 5 kg/ha; read-out: disease control rating, Ex. M. On the procedure:
[…] Seeds and soil were then inoculated with a mixture of sand, cereal and mycelium of the fungus Sclerotium rolfsii, causal agent of sourthern blight, and incubated in a growth chamber at 30° C. for 14 days. Disease ratings were then made.

Test [5] relates to Candida albicans ATCC 11651. Nature of the test: In vitro antifungal MIC, microtiter broth dilution. As to conditions: Candida albicans, ATCC11651, 24 h, read-out: MIC values, C. albicans, 30°, 24 hours.
Procedure: In vitro activity (Table 5) is expressed in terms of the minimal inhibitory concentration (MIC) of the test compound which inhibits the growth of yeasts and fungi.
The target organisms, Candida albicans ATCC 11651 and Aspergillus fumigatus ATCC 28214 are standardized, [V. Bezjak, J. Clinical Micro., 21 509-512 (1984)], to a concentration of 10^7 organisms/ml and maintained at -70° until use. Test compounds are solubilized in dimethyl sulfoxide (DMSO) and diluted in Eagle's Minimum Essential Medium (EMEM) broth to achieve a final concentration of 200 μg/ml. Stock solutions of standard antifungal agents are stored at -70° and diluted in EMEM as required.
The in vitro assay utilizes a microtiter broth dilution technique [L. Polonelli and G. Morace, Mycopathologia, 86, 21-28 (1984)] and C. […] The appropriate wells are inoculated with the required organism (C. albicans at 1×10^4 organisms/ml and A. fumigatus at 5×10^5 organisms/ml) and the assay incubated at 30° for 24 hours.
In test [6] the test system is Aspergillus fumigatus ATCC 28214. Nature of the test: In vitro antifungal MIC, microtiter broth dilution. As to conditions: Aspergillus fumigatus, ATCC28214, 24 h, read-out: MIC values, A. fumigatus, 30°, 24 hours. A general note: Dilution methods test growth across graded concentrations, often in twofold steps.
Test [7] relates to Rhizoctonia solani. Nature of the test: Example F rice sheath blight. It counts as in vivo. As to conditions: Rhizoctonia solani, 144 h, 100 PPM; read-out: disease control rating, Ex. F. Put shortly:
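Foliar run-off spray, rice seedlings: compound at 100 or 20 ppm in aqueous 250 ppm polyhydric alcohol ester surfactant, acetone 6% v/v final.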

With `C=C(c1cc(Cl)cc(Cl)c1)C(O)(Cn1cncn1)c1ccc(F)cc1F` (stereo not drawn) [Example 815], the pest or weed control at 100 ppm with Venturia inaequalis came to 40%; in [1] it was 98%; in the test with Botrytis cinerea, 0%; in [2], 62%; in the test on Pyricularia oryzae it was 2%; in the test with Puccinia recondita, 97%. Besides, the values for the pest or weed control at 100 ppm in the test on Phytophthora infestans and in the test with Plasmorpara viticola were 0% and 65%, respectively. The pest or weed control at 5000 g/ha (with Pythium aphanadermatum; in the test with Rhizoctonia solani [3]; in test [4]; in the test with Sclerotium rolfsii) was 0% each time. The MIC in [5] is 0.03 µg/mL (≈ 0.0757 µM); in [6] it was > 100 µg/mL.
As for `N#CCS(=O)(=O)c1ncnn1CC(O)(c1ccccc1F)C1(c2ccc(F)cc2)CO1` (stereo not drawn) [Example 1469], the pest or weed control at 100 ppm came to 68% in the test on Venturia inaequalis; 84% in test [1]; 81% in the test with Botrytis cinerea; 77% in test [2]; 2% in the test with Pyricularia oryzae; 100% with Puccinia recondita. The pest or weed control at 100 ppm in the test on Phytophthora infestans stood at 24%; in the test on Plasmorpara viticola, 89%. In addition, the pest or weed control at 5000 g/ha with Pythium aphanadermatum stood at 0%; in the test on Rhizoctonia solani [3], 80%; in test [4], 70%; with Sclerotium rolfsii, 0%.
For the molecule `C=C(CN(C)C)C(O)(Cn1cncn1)c1ccc(-c2ccccc2)cc1` (stereo not drawn) [Example 456], the pest or weed control at 100 ppm stood at 82% in the test with Venturia inaequalis; 0% in test [1]; 58% in the test on Botrytis cinerea; 53% in test [2]; 98% in the test with Pyricularia oryzae; 0% in the test on Rhizoctonia solani [7]. Further, the pest or weed control at 100 ppm in the test on Puccinia recondita is 96%; in the test on Phytophthora infestans, 9%; with Plasmorpara viticola it was 0%. Besides, the pest or weed control at 5000 g/ha (in the test with Pythium aphanadermatum; with Rhizoctonia solani [3]; in test [4]; in the test on Sclerotium rolfsii) was 0% throughout.
Consider `C=C(CO)C(O)(Cn1cncn1)c1ccc(Br)cc1` (stereo not drawn) [Example 451], for which the pest or weed control at 100 ppm in the test on Venturia inaequalis was 16%; in test [1] it was 100%; in the test with Botrytis cinerea, 72%; in test [2], 0%; with Pyricularia oryzae, 0%; with Rhizoctonia solani [7] it was 0%. Further, the pest or weed control at 100 ppm with Puccinia recondita, in the test with Phytophthora infestans and in the test with Plasmorpara viticola was 0% in each case. For the same molecule, the pest or weed control at 5000 g/ha (in the test on Pythium aphanadermatum; with Rhizoctonia solani [3]; in [4]; in the test with Sclerotium rolfsii) was 0% in each case. In addition, in test [5], the minimum inhibitory concentration (MIC) came to 12.5 µg/mL (≈ 38.6 µM).
For `C=C(CO)C(O)(Cn1cncn1)c1ccc(-c2ccccc2)cc1` (stereo not drawn) [Example 452], the pest or weed control at 100 ppm was found to be 36% with Venturia inaequalis; 0% in [1]; 54% in the test on Botrytis cinerea; 46% in test [2]; 0% in the test on Pyricularia oryzae; 67% in the test with Rhizoctonia solani [7]. Further, the values for the pest or weed control at 100 ppm in the test on Puccinia recondita, in the test with Phytophthora infestans and in the test on Plasmorpara viticola were 30%, 0% and 0%, respectively. Moreover, the pest or weed control at 5000 g/ha (in the test with Pythium aphanadermatum; in the test on Rhizoctonia solani [3]; in test [4]; in the test with Sclerotium rolfsii) was 0% in each case. In addition, the MIC in [5] is > 100 µg/mL.
For the molecule `C=C(CO)C(O)(Cn1cncn1)c1ccc(Cl)cc1` (stereo not drawn) [Example 447], the pest or weed control at 100 ppm came out at 0% in [1]; 24% in the test on Botrytis cinerea; 46% in test [2]; 46% in the test with Pyricularia oryzae; 0% with Rhizoctonia solani [7]; 30% in the test with Puccinia recondita. The pest or weed control at 100 ppm with Phytophthora infestans amounted to 0%; in the test with Plasmorpara viticola, 24%. Further, the pest or weed control at 5000 g/ha (in the test on Pythium aphanadermatum; in the test on Rhizoctonia solani [3]; in test [4]; in the test with Sclerotium rolfsii) was 0% throughout. For the same molecule, in test [5], the MIC came out at 3.2 µg/mL (≈ 11.4 µM).
On to `C=C(CO)C(O)(Cn1cncn1)c1ccc(Cl)cc1Cl` (stereo not drawn) [Example 449], for which the pest or weed control at 100 ppm in the test with Venturia inaequalis came to 71%; in [1], 0%; with Botrytis cinerea it was 24%; in test [2], 0%; in the test on Pyricularia oryzae, 76%; in the test with Rhizoctonia solani [7], 13%. Further, the pest or weed control at 100 ppm in the test on Puccinia recondita was found to be 30%; with Phytophthora infestans it was 0%; in the test with Plasmorpara viticola, 51%. Besides, the pest or weed control at 5000 g/ha (with Pythium aphanadermatum; with Rhizoctonia solani [3]; in test [4]; in the test with Sclerotium rolfsii) was 0% in each case. In test [5], the minimal inhibitory concentration (MIC) was ≤ 0.4 µg/mL.
Regarding `N#CC[S+]([O-])c1ncnn1CC(O)(c1ccccc1F)C1(c2ccc(F)cc2)CO1` (stereo not drawn) [Example 1468], the pest or weed control at 100 ppm in the test with Venturia inaequalis was 40%; in [1] it was 0%; in the test with Botrytis cinerea, 0%; in test [2], 77%; with Pyricularia oryzae it was 2%; in the test with Puccinia recondita, 93%. Further, the results for the pest or weed control at 100 ppm in the test on Phytophthora infestans and in the test on Plasmorpara viticola were 0% and 46%, respectively. Further, the pest or weed control at 5000 g/ha worked out at 0% in the test on Pythium aphanadermatum, 60% in the test with Rhizoctonia solani [3], 0% in test [4] and 0% with Sclerotium rolfsii.
For the molecule `C=C(CN(C)C)C(O)(Cn1cncn1)c1ccc(Br)cc1` (stereo not drawn) [Example 455], the pest or weed control at 100 ppm in the test with Venturia inaequalis was found to be 64%; in test [1], 65%; with Botrytis cinerea it was 0%; in test [2] it was 12%; with Pyricularia oryzae it was 0%; in the test with Rhizoctonia solani [7], 0%. Also, the pest or weed control at 100 ppm in the test on Puccinia recondita came out at 43%; with Phytophthora infestans it was 0%; with Plasmorpara viticola, 0%. Further, the pest or weed control at 5000 g/ha (in the test on Pythium aphanadermatum; in the test with Rhizoctonia solani [3]; in test [4]; in the test on Sclerotium rolfsii) was 0% each time. Besides, the minimum inhibitory concentration (MIC) in test [5] is 25 µg/mL (≈ 71.2 µM).

As usually defined, the MIC is the smallest concentration in the dilution series that meets the test's criterion for growth inhibition.
